Experimental data as given in patent publication US9657009B2, “Heteroaryl substituted pyridyl compounds useful as kinase modulators” (BRISTOL-MYERS SQUIBB COMPANY, priority 2012, dated 2017).
pIC50: −log10 of the molar value. Read-outs that look alike come from different tables or passages of the source.

Molecular target: IRAK4 (Homo sapiens (Human), UniProt Q9NWZ3)
Assay: IRAK4 Inhibition Assay
Format: biochemical
Description: IRAK4 Inhibition Assay The assays were performed in U-bottom 384-well plates. […] The reaction was initiated by the combination of IRAK4 with substrates and test compounds. The reaction mixture was incubated at room temperature for 60 min. and terminated by adding 45 μL of 35 mM EDTA to each sample.

[1] = ATP 500 μM; IRAK4 0.6 nM; 60 min at room temperature; read-out: IRAK4 IC50

Sequence of IRAK4 (Q9NWZ3 whole entry, species assumed): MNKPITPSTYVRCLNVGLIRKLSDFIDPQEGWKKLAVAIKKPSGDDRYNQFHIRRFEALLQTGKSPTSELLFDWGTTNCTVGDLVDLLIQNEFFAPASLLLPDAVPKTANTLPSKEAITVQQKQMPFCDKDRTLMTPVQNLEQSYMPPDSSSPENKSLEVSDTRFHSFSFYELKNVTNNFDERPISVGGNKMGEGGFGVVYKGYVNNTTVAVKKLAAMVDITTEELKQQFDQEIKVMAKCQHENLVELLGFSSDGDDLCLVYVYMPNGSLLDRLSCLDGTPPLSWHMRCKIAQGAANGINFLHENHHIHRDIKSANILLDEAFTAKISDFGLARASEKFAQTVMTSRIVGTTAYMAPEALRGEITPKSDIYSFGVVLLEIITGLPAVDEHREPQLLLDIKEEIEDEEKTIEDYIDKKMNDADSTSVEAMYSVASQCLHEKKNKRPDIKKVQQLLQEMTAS

SMILES | pIC50 [1] | pIC50 (read-out: IRAK4 IC50; ATP 500 μM; IRAK4 0.6 nM; 60 min at room temperature)
CCNc1cc(Nc2ncc(C#N)cn2)ncc1C(=O)NC[C@@H](F)C(C)(C)O [Example 58] | 7.98 | 
CNC(=O)[C@H]1CC[C@H](NC(=O)c2cnc(Nc3ncc(C#N)cc3F)cc2NC2CC2)CC1 [Example 59] | 8.13 | 
CNC(=O)[C@H]1CC[C@H](NC(=O)c2cnc(Nc3ncc(C#N)cc3Cl)cc2NC2CC2)CC1 [Example 60] | 8.17 | 
CNC(=O)[C@H]1CC[C@H](NC(=O)c2cnc(Nc3ncc(C#N)cc3F)cc2NC2CCOCC2)CC1 [Example 61] | 8.08 | 
Cc1nc(Nc2cc(NC(C)C)c(C(=O)NC[C@@H](F)C(C)(C)O)cn2)ccc1C#N [Example 63] | 8.42 | 
CC(=O)N[C@H](C)CCNC(=O)c1cnc(Nc2ncc(C#N)cc2F)cc1NC(C)C [Example 64] | 8.51 | 
CC(C)(O)[C@H](F)CNC(=O)c1cnc(Nc2ncc(C#N)cc2Cl)cc1NCC(F)(F)F [Example 65] | 8.54 | 
CCNc1cc(Nc2ncc(C#N)cc2F)ncc1C(=O)NC[C@@H](F)C(C)(C)O [Example 66] | 8.42 | 
CC(=O)N[C@H]1CC[C@H](NC(=O)c2cnc(Nc3ncc(C#N)cc3Cl)cc2NC2CC2)CC1 [Example 67] | 8.14 | 
CCn1ncc(Nc2cc(NC(C)C)c(C(=O)NC[C@@H](F)C(C)(C)O)cn2)n1 [Example 72] | 7.98 | 
CC(C)(O)c1cnc(Nc2cc(Nc3ncc(C#N)cc3Cl)ncc2C(=O)NC[C@@H](F)C(C)(C)O)s1 [Example 75] | 8.85 | 
CC(C)(O)[C@H](F)CNC(=O)c1cnc(Nc2ncc(C#N)cc2Cl)cc1NC1CCCC1O (stereo partly shown) [Example 76] | 8.19 | 
CC(=O)N[C@H]1CC[C@H](NC(=O)c2cnc(Nc3ncc(C#N)cc3Cl)cc2NC2CCOCC2)CC1 [Example 77] | 8.11 | 
CC(C)(O)[C@H](F)CNC(=O)c1cnc(Nc2ncc(C#N)cc2Cl)cc1NC1CCOCC1F (stereo partly shown) [Example 79] | 8.52 | 
CC(C)Nc1cc(Nc2ncc(F)cc2F)ncc1C(=O)NC[C@@H](F)C(C)(C)O [Example 80] | 8.15 | 
CC(C)(O)[C@H](F)CNC(=O)c1cnc(Nc2ccc(Cl)cn2)cc1NC1CC1 [Example 81] | 8.15 | 
CC(=O)N[C@H]1CC[C@H](NC(=O)c2cnc(Nc3ncc(C#N)cc3F)cc2NC2CC2)CC1 [Example 83] | 8.14 | 
Cc1cc(C#N)cnc1Nc1cc(NC(C)C)c(C(=O)NC[C@@H](F)C(C)(C)O)cn1 [Example 85] | 8.44 | 
CC(C)(O)[C@H](F)CNC(=O)c1cnc(Nc2ncc(C#N)cn2)cc1NC1CCC(F)C1 (stereo partly shown) [Example 86] | 8.32 | 
CC(C)(O)[C@H](F)CNC(=O)c1cnc(Nc2ncc(F)cc2F)cc1NC1CC1 [Example 89] | 7.84 | 
CC(C)(O)[C@H](F)CNC(=O)c1cnc(Nc2ncc(C#N)cc2Cl)cc1NC12CC(C1)C2 [Example 90] | 8.46 | 
C[C@@H](CO)Nc1cc(Nc2ncc(C#N)cc2F)ncc1C(=O)NC[C@@H](F)C(C)(C)O [Example 91] | 8.37 | 
CC(C)Nc1cc(Nc2ncc(C#N)cc2Cl)ncc1C(=O)N[C@H]1CC[C@H](O)CC1 [Example 92] | 7.90 | 
COC(=O)Cn1cc(Cl)c(Nc2cc(NC(C)C)c(C(=O)NC[C@@H](F)C(C)(C)O)cn2)n1 [Example 93] | 7.76 | 
CC(C)(O)[C@H](F)CNC(=O)c1cnc(Nc2ncncc2F)cc1NC1CC1 [Example 94] | 7.92 | 

SMILES | pIC50 [1] | pIC50 (read-out: IRAK4 IC50; ATP 500 μM; IRAK4 0.6 nM; 60 min at room temperature)
CC(C)(O)[C@H](F)CNC(=O)c1cnc(Nc2ncncc2Cl)cc1NC1CCCOC1 (stereo partly shown) [Example 96] | 7.95 | 
CC(C)(O)[C@H](F)CNC(=O)c1cnc(Nc2ncc(C#N)cc2F)cc1NC1CCCOC1 (stereo partly shown) [Example 97] | 8.28 | 
CC(C)(O)[C@H](F)CNC(=O)c1cnc(Nc2ncc(C#N)cc2F)cc1NC1CCCOC1 (stereo partly shown) [Example 98] | 8.12 | 
CCC(C)Nc1cc(Nc2ncc(C#N)cn2)ncc1C(=O)NC[C@@H](F)C(C)(C)O (stereo partly shown) [Example 99] | 8.38 | 
C[C@H](CO)Nc1cc(Nc2ncc(F)cc2F)ncc1C(=O)NC[C@@H](F)C(C)(C)O [Example 100] | 7.76 | 
C[C@@H](CO)Nc1cc(Nc2ncc(C#N)cn2)ncc1C(=O)NC[C@@H](F)C(C)(C)O [Example 101] | 8.25 | 
CC(C)(F)CNc1cc(Nc2ncc(C#N)cc2Cl)ncc1C(=O)NC1CCC(C(C)(C)O)CC1 (stereo not shown) [Example 103] | 8.28 | 
CC(C)(O)[C@H](F)CNC(=O)c1cnc(Nc2ncc(C#N)cc2Cl)cc1NC1CCCCC1O (stereo partly shown) [Example 104] | 8.07 | 
CC(C)(O)[C@H](F)CNC(=O)c1cnc(Nc2ncc(C#N)cn2)cc1N[C@H]1CCC[C@H]1F [Example 107] | 8.04 | 
CC(C)(O)[C@H](F)CNC(=O)c1cnc(Nc2ncc(F)cc2F)cc1NC1CCOCC1F (stereo partly shown) [Example 108] | 8.06 | 
CC(C)Nc1cc(Nc2ncc(O)cn2)ncc1C(=O)NC[C@@H](F)C(C)(C)O [Example 111] | 7.93 | 
COc1cnc(Nc2cc(NC3CCC3)c(C(=O)NC[C@@H](F)C(C)(C)O)cn2)nc1 [Example 112] | 7.96 | 
Cc1cnc(Nc2cc(NC(C)C)c(C(=O)NC[C@@H](F)C(C)(C)O)cn2)nc1 [Example 113] | 7.77 | 
CC(C)(O)[C@H](F)CNC(=O)c1cnc(Nc2ncc(C#N)cc2F)cc1NC1CCC(F)C1 (stereo partly shown) [Example 114] | 8.64 | 
CC(C)Nc1cc(Nc2ncc(C#N)cc2F)ncc1C(=O)N[C@H]1CC[C@H](C(=O)NC(C)C)CC1 [Example 116] | 8.55 | 
CCC(O)(CC)[C@H](F)CNC(=O)c1cnc(Nc2ncc(C#N)cn2)cc1NC(C)C [Example 117] | 8.42 | 
CC(C)Nc1cc(Nc2ncc(C#N)cc2F)ncc1C(=O)N[C@H]1CC[C@H](C(=O)NC2CC2)CC1 [Example 118] | 8.34 | 
CC(C)(O)[C@H](F)CNC(=O)c1cnc(Nc2ncc(C#N)cc2F)cc1NC12CC3CC(CC(C3)C1)C2 [Example 119] | 7.98 | 
CC(C)Nc1cc(Nc2ncc(C#N)cc2F)ncc1C(=O)NCCc1ccc(S(N)(=O)=O)cc1 [Example 121] | 8.18 | 
CC(C)(O)[C@H](F)CNC(=O)c1cnc(Nc2ncc(C#N)cc2F)cc1Nc1cccc(CO)c1 [Example 122] | 8.48 | 
CC(C)Nc1cc(Nc2ncc(Cl)cc2F)ncc1C(=O)NC[C@@H](F)C(C)(C)O [Example 123] | 8.46 | 
CC(C)(O)[C@H](F)CNC(=O)c1cnc(Nc2ncc(Cl)cc2F)cc1NC1CC1 [Example 124] | 8.24 | 
CC(C)(O)[C@H](F)CNC(=O)c1cnc(Nc2ncc(C#N)cc2F)cc1Nc1cccc(O)c1 [Example 125] | 8.44 | 
CC(C)(O)[C@H](F)CNC(=O)c1cnc(Nc2ncc(C#N)cc2F)cc1NCC(F)(F)C(C)(C)O [Example 126] | 8.54 | 
CC(C)Nc1cc(Nc2ncc(C#N)cc2F)ncc1C(=O)NCCCOC(C)(C)C [Example 127] | 7.82 | 

SMILES | pIC50 [1] | pIC50 (read-out: IRAK4 IC50; ATP 500 μM; IRAK4 0.6 nM; 60 min at room temperature)
CC(C)(O)[C@H](F)CNC(=O)c1cnc(Nc2ncc(C#N)cc2F)cc1Nc1cccc(S(N)(=O)=O)c1 [Example 128] | 8.34 | 
Cc1cnc(Nc2cc(NC(C)C)c(C(=O)NC[C@@H](F)C(C)(C)O)cn2)c(F)c1 [Example 129] | 7.80 | 
COc1cccc(Nc2cc(Nc3ncc(C#N)cc3F)ncc2C(=O)NC[C@@H](F)C(C)(C)O)c1 [Example 130] | 8.40 | 
CC(C)Nc1cc(Nc2ccnc(N)n2)ncc1C(=O)NC[C@@H](F)C(C)(C)O [Example 131] | 7.97 | 
CC(C)Nc1cc(Nc2ncncc2N)ncc1C(=O)NC[C@@H](F)C(C)(C)O [Example 132] | 7.89 | 
CC(C)(O)[C@H](F)CNC(=O)c1cnc(Nc2ncc(C#N)cc2F)cc1NC12CCC(O)(CC1)C2 [Example 133] | 8.49 | 
CC(C)(O)[C@H](F)CNC(=O)c1cnc(Nc2ncc(C#N)cc2F)cc1Nc1cccc(NS(C)(=O)=O)c1 [Example 134] | 8.28 | 
CC(C)(O)[C@H](F)CNC(=O)c1cnc(Nc2ncc(C#N)cc2F)cc1Nc1cccc(C(N)=O)c1 [Example 135] | 8.22 | 
CC(C)Nc1cc(Nc2ncc(C#N)c(N)n2)ncc1C(=O)NC[C@@H](F)C(C)(C)O [Example 136] | 8.48 | 
CC(C)Nc1cc(Nc2ncc(C#N)cc2F)ncc1C(=O)N[C@H]1CC[C@H](C(C)(C)O)CC1 [Example 137] | 8.39 | 
CCCNc1cc(Nc2ncc(C#N)cc2Cl)ncc1C(=O)NC[C@@H](F)C(C)(C)O [Example 138] | 8.46 | 
CCCNc1cc(Nc2ncc(C#N)cc2F)ncc1C(=O)NC[C@@H](F)C(C)(C)O [Example 139] | 8.22 | 
CC(C)CCNc1cc(Nc2ncc(C#N)cc2Cl)ncc1C(=O)NC[C@@H](F)C(C)(C)O [Example 140] | 8.14 | 
CC(C)CCNc1cc(Nc2ncc(C#N)cc2F)ncc1C(=O)NC[C@@H](F)C(C)(C)O [Example 141] | 8.00 | 
CC(C)(O)[C@H](F)CNC(=O)c1cnc(Nc2ncc(C#N)cc2F)cc1Nc1ccc(C(N)=O)cc1 [Example 142] | 8.92 | 
CC(C)(O)[C@H](F)CNC(=O)c1cnc(Nc2ncc(C#N)cc2Cl)cc1Nc1cccc(C(N)=O)c1 [Example 143] | 8.54 | 
CC(C)Nc1cc(Nc2ncc(C#N)cc2F)ncc1C(=O)NC1CCC(C(C)(O)C2CC2)CC1 (stereo not shown) [Example 144] |  | 8.11
Cn1nnnc1-c1cccc(Nc2cc(Nc3ncc(C#N)cc3Cl)ncc2C(=O)NC[C@@H](F)C(C)(C)O)c1 [Example 146] | 8.07 | 
Cn1nnnc1-c1ccc(Nc2cc(Nc3ncc(C#N)cn3)ncc2C(=O)NC[C@@H](F)C(C)(C)O)cc1 [Example 147] | 7.91 | 
Cn1nnnc1-c1ccc(Nc2cc(Nc3ncc(C#N)cc3Cl)ncc2C(=O)NC[C@@H](F)C(C)(C)O)cc1 [Example 148] | 8.47 | 
CS(=O)(=O)[C@H]1CC[C@H](NC(=O)c2cnc(Nc3ncc(C#N)cc3Cl)cc2NC2CCOCC2)CC1 [Example 149] | 8.52 | 
CC(C)(O)[C@H](F)CNC(=O)c1cnc(Nc2ncc(C#N)cc2Cl)cc1N[C@H]1CC[C@](C)(O)CC1 [Example 150] | 8.85 | 
CS(=O)(=O)[C@H]1CC[C@H](NC(=O)c2cnc(Nc3ncc(C#N)cc3Cl)cc2NC2CC2)CC1 [Example 151] | 8.48 | 
